Test results from US9708349B2, “Borates for photoactivated chemical bleaching” (GENERAL ELECTRIC COMPANY, priority 2015, dated 2017).

Experiment: Stability of solid borate on exposure to air (1HNMR)

c1ccc(C[B-](c2ccccc2)(c2ccccc2)c2ccccc2)cc1 [MBB, monobenzyltriphenyl borate]
time to evidence of decomposition: < 10 min
